From patent EP4471048A1, “PEPTIDE INHIBITORS OF INTERLEUKIN-23 RECEPTOR” (Zealand Pharma A/S, priority 2023, dated 2024)
Where a SMILES comes first, the peptide text is derived from it. Bridges are numbered along the chain shown (N, C = ends). [ ]: non-standard residue; d: D form. 2Nal = N[C@@H](Cc1ccc2ccccc2c1)C(=O)O; AEF = NCCOc1ccc(C[C@H](N)C(=O)O)cc1; 3Pal = N[C@@H](Cc1cccnc1)C(=O)O; αMeL = CC(C)C[C@](C)(N)C(=O)O; Orn = NCCC[C@H](N)C(=O)O; Dab = NCC[C@H](N)C(=O)O; βAla = NCCC(=O)O

Tests used:
[1] = Peptide stability in simulated gastric fluid (SGF); format: in vitro ADME; settings: 37 °C, porcine pepsin; for remaining at 1 h, 10 µM / remaining at 4 h, 10 µM: pig, simulated gastric fluid (SGF) with porcine pepsin (3.2 g/L), pH 1.2, 10 µM; for remaining at 1 h, 10 µM: read-out: SGF (% remaining 1 h); for remaining at 4 h, 10 µM: read-out: SGF (% remaining 4 h)
Description: (§1) SGF was prepared by dissolving sodium chloride (0.2 g) in 50 mL of water. A volume of 0.7 mL of 10 M HCl was added to adjust the pH of the solution to 1.2 and the volume made up to 100 mL with water. […] SIF was prepared by dissolving monobasic potassium phosphate (0.68 g) in 50 mL of water and adjusting the pH to 6.8 with 1 M NaOH. The volume was subsequently made up to 100 mL with water. 200 mg porcine pancreatin (P1625, Sigma Aldrich) was gently dissolved into 20 mL preheated (37 °C) solution (10 g/L) immediately prior to the incubation.
(§2) The incubation was performed at 37 °C with gentle shaking. […] After the last timepoint, the sampling plate was mixed for 10 min on a shaking table and centrifuged 10 min at 2200 g. 70 µL resulting supernatant was diluted with 150 µL water, mixed and centrifugated before analysis by liquid chromatography high resolution mass spectrometry. […] Percent remaining at each timepoint was calculated relative to timepoint zero based on absolute peak areas.
Compounds with a SGF stability (after 4 h) above 70% are considered highly SGF stable. […] Table 3-4: SGF data

[2] = biological target: T1, human IL-23R (Homo sapiens, UniProt Q5VWK5); experiment: biochemical; settings: for Emax: read-out: % displacement (hIL-23R NIuc)
T1 sequence (Q5VWK5 22-629): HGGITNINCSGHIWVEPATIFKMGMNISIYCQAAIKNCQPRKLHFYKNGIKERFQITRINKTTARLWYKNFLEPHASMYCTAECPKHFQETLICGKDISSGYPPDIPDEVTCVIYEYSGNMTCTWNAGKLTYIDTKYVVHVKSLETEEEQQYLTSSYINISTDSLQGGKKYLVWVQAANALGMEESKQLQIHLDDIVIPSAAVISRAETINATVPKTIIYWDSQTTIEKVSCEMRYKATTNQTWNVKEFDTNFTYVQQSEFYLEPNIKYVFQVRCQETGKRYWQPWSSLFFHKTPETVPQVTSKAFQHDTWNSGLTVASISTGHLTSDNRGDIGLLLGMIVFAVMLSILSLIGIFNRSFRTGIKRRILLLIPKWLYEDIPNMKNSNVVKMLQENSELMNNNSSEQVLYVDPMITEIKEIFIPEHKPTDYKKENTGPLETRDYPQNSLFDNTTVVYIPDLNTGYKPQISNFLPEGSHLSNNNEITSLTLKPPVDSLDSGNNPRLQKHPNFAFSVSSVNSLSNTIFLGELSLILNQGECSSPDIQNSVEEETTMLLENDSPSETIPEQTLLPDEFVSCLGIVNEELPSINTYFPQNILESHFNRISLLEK
Summary of the method: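 Membranes from HEK293 cells stably expressing Nluc-tagged human IL-23R were incubated 2 h at room temperature with test compound and a fluorophore-labelled tracer. After substrate addition, loss of BRET (TAMRA over luciferase emission) reported tracer displacement. A 4PL fit gave IC50 values.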

[3] = Peptide stability in simulated intestinal fluid (SIF); format: in vitro ADME; settings: 37 °C, porcine pancreatin; for remaining at 1 h, 10 µM / remaining at 4 h, 10 µM: pig; for remaining at 4 h, 10 µM: read-out: SIF (% remaining 4 h)
Description: as §1, §2
Compounds with a SIF stability (after 4 h) above 70% are considered highly SIF stable.

| SMILES | remaining at 1 h, 10 µM ([1]; pH 1.2, 1 h) [%] | remaining at 4 h, 10 µM ([1]; pH 1.2, 4 h) [%] | IC50 [2] [nM] | Emax [2] [%] | remaining at 1 h, 10 µM ([3]; pH 6.8, 1 h) [%] | remaining at 4 h, 10 µM ([3]; pH 6.8, 4 h) [%] | % displacement (hIL-23R NIuc) [2] [%] | SGF (% remaining 1 h) ([1]; 10 µM, pH 1.2, 1 h) [%] | SGF (% remaining 4 h) ([1]; 10 µM, pH 1.2, 4 h) [%] | SIF (% remaining 1 h) ([3]; 10 µM, pH 6.8, 1 h) [%] | SIF (% remaining 4 h) ([3]; 10 µM, pH 6.8, 4 h) [%] |
| --- | --- | --- | --- | --- | --- | --- | --- | --- | --- | --- | --- |
| CNC(=O)[C@H](Cc1cccnc1)NC(=O)[C@H](CCN)NC(=O)[C@@H]1CCC(=O)NCCCC[C@@H]2NC(=O)CC[C@H](NC(=O)[C@H](CCC(N)=O)NC(=O)[C@H](Cc3c[nH]c4ccccc34)NC(=O)CCNC2=O)C(=O)N[C@@H](Cc2cccnc2)C(=O)N[C@@H](Cc2ccc3ccccc3c2)C(=O)N[C@@](C)(CC(C)C)C(=O)N1 [Compound 83, K(1c)(6c)^†[3-Aminopropanoyl]WQE(6c)[3-(3-Pyridyl)-Ala][2-Nal][2-Me-Leu]E(1c)[Dab][3-(3-Pyridyl)-Ala]-[NHMe]] | 106 | 97 | 0.38 | 101 | 94 | 86 |  |  |  |  |  |
| CNC(=O)[C@H](Cc1cccnc1)NC(=O)[C@H](Cc1cccnc1)NC(=O)[C@@H]1CCC(=O)NCCCC[C@@H]2NC(=O)CC[C@H](NC(=O)[C@H](CCC(N)=O)NC(=O)[C@H](Cc3c[nH]c4ccccc34)NC(=O)CCNC2=O)C(=O)N[C@@H](Cc2ccc(OCCN)cc2)C(=O)N[C@@H](Cc2ccc3ccccc3c2)C(=O)N[C@@](C)(CC(C)C)C(=O)N1 [Compound 87, K(1c)(6c)^†[3-Aminopropanoyl]WQE(6c)[Y(2-aminoethoxy)][2-Nal][2-Me-Leu]E(1 c)[3-(3-Pyridyl)-Ala][3-(3-Pyridyl)-Ala]-[NHMe]] | 87 | 89 | 0.039 |  | 1 | 1 | 103 |  |  |  |  |
| CNC(=O)[C@H](Cc1cccnc1)NC(=O)[C@H](CCN)NC(=O)[C@@H]1CCC(=O)NCCC[C@@H]2NC(=O)CC[C@H](NC(=O)[C@H](CCC(N)=O)NC(=O)[C@H](Cc3c[nH]c4ccccc34)NC(=O)CCNC2=O)C(=O)N[C@@H](Cc2ccc(OCCN)cc2)C(=O)N[C@@H](Cc2ccc3ccccc3c2)C(=O)N[C@@](C)(CC(C)C)C(=O)N1 [Compound 91, [Orn](1c)(6c)^†[3-Aminopropanoyl]WQE(6c)[Y(2-aminoethoxy)][2-Nal][2-Me-Leu]E(1c)[Dab][3-(3-Pyridyl)-Ala]-[NHMe]] ([Orn][βAla]WQE[AEF][2Nal][αMeL]E[Dab][3Pal]-NHMe; lactam 1-9, N-5) | 116 | 115 | 0.35 | 100 | 98 | 57 |  |  |  |  |  |
| CC[C@H](C)[C@@H]1NC(=O)[C@@H]2CCCCNC(=O)CC[C@@H](C(=O)N[C@@H](CCN)C(=O)N[C@@H](Cc3cccnc3)C(=O)NC)NC(=O)[C@](C)(CC(C)C)NC(=O)[C@H](Cc3ccc4ccccc4c3)NC(=O)[C@H](Cc3ccc(OCCN)cc3)NC(=O)[C@H](CCC(=O)N2C)NC(=O)[C@H](CCC(N)=O)NC(=O)[C@H](Cc2c[nH]c3ccccc23)NC(=O)[C@H](C(C)C)NC1=O [Compound 75, [N-Me-Lys](1c)(6c)^†IVWQE(6c)[Y(2-aminoethoxy)][2-Nal][2-Me-Leu]E(1c)[Dab][3-(3-Pyridyl)-Ala]-[NHMe]] | 102 | 92 | 0.017 | 101 | 96 | 79 |  |  |  |  |  |
| CNC(=O)[C@H](Cc1cccnc1)NC(=O)[C@H](CCN)NC(=O)[C@@H]1CCC(=O)NCCCC[C@@H]2NC(=O)CC[C@H](NC(=O)[C@H](CCC(N)=O)NC(=O)[C@H](Cc3c[nH]c4ccccc34)NC(=O)CCCNC2=O)C(=O)N[C@@H](Cc2ccc(OCCN)cc2)C(=O)N[C@@H](Cc2ccc3ccccc3c2)C(=O)N[C@@](C)(CC(C)C)C(=O)N1 [Compound 98, K(1c)(6c)^†[4-Aminobutanoyl]WQE(6c)[Y(2-aminoethoxy)][2-Nal][2-Me-Leu]E(1c)[Dab][3-(3-Pyridyl)-Ala]-[NHMe]] | 101 | 96 | 0.024 |  | 88 | 58 | 101 |  |  |  |  |
| CC[C@H](C)[C@@H]1NC(=O)[C@@H]2CCCCNC(=O)CC[C@@H](C(=O)N[C@@H](Cc3cn(C)cn3)C(=O)N[C@@H](Cc3cccnc3)C(=O)NC)NC(=O)[C@](C)(CC(C)C)NC(=O)[C@H](Cc3ccc4ccccc4c3)NC(=O)[C@H](Cc3ccc(OCCN)cc3)NC(=O)[C@H](CCC(=O)N2)NC(=O)[C@H](CCC(N)=O)NC(=O)[C@H](Cc2c[nH]c3ccccc23)NC(=O)[C@H](C(C)C)NC1=O [Compound 73, K(1c)(6c)^†IVWQE(6c)[Y(2-aminoethoxy)][2-Nal][2-Me-Leu]E(1c)[H(1-Me)][3-(3-Pyridyl)-Ala]-[NHMe]] | 100 | 99 | 0.12 |  | 11 | 0 | 102 |  |  |  |  |
| CC[C@H](C)[C@H]1CC(=O)N[C@@H](Cc2c[nH]c3ccccc23)C(=O)N[C@@H](CCC(N)=O)C(=O)N[C@H]2CCC(=O)N[C@@H](CCCCNC(=O)CC[C@@H](C(=O)N[C@@H](CCN)C(=O)N[C@@H](Cc3cccnc3)C(=O)NC)NC(=O)[C@](C)(CC(C)C)NC(=O)[C@H](Cc3ccc4ccccc4c3)NC(=O)[C@H](Cc3ccc(OCCN)cc3)NC2=O)C(=O)N1 [Compound 96, K(1c)(6c)^†[beta-hlle]WQE(6c)[Y(2-aminoethoxy)][2-Nal][2-Me-Leu]E(1c)[Dab][3-(3-Pyridyl)-Ala]-[NHMe]] | 105 | 105 | 0.03 | 91 | 103 | 105 |  |  |  |  |  |
| CC[C@H](C)[C@@H]1NC(=O)[C@@H]2CCCCNC(=O)CC[C@@H](C(=O)NCCc3cccnc3)NC(=O)[C@](C)(C(C)C)NC(=O)[C@H](Cc3ccc4ccccc4c3)NC(=O)[C@H](Cc3ccc(OCCN)cc3)NC(=O)[C@H](CCC(=O)N2)NC(=O)[C@H](CCC(N)=O)NC(=O)[C@H](Cc2c[nH]c3ccccc23)NC(=O)[C@H](C(C)C)NC1=O [Compound 26, K(1c)(6c)^†IVWQE(6c)[Y(2-aminoethoxy)][2-Nal][2-Me-Val]E(1c)-[NH-2-(pyridin-3-yl)ethyl]] | 95 | 96 | 320 |  | 97 | 96 | 101 |  |  |  |  |
| COc1ccc(C[C@@H]2NC(=O)[C@@H]3CCC(=O)N[C@@H](CCCCNC(=O)CC[C@@H](C(=O)N[C@@H](CCCCNC(=O)c4cccnc4)C(N)=O)NC(=O)[C@](C)(CC(C)C)NC(=O)[C@H](Cc4ccc5ccccc5c4)NC2=O)C(=O)N[C@@H]([C@@H](C)O)C(=O)N[C@@H](C(C)C)C(=O)N[C@@H](Cc2c[nH]c4ccccc24)C(=O)N[C@@H](CCC(N)=O)C(=O)N3)cc1 [Compound 50, K(1c)(6c)^†TVWQE(6c)[Y(Me)][2-Nal][2-Me-Leu]E(1c)[K(nicotinate)]-[NH2]] | 78 | 8 | 320 |  | 95 | 81 | 98 |  |  |  |  |
| CC(C)C[C@@H]1NC(=O)[C@H](Cc2c[nH]c3ccccc23)NC(=O)[C@H](Cc2c[nH]c3ccccc23)NC(=O)[C@@H]2CSCC(=O)CSC[C@H](NC(=O)[C@H](CO)NC(=O)[C@@H](NC(=O)[C@@H](N)CC(=O)O)CSCC(=O)CSC[C@@H](C(=O)N[C@@H](CCCNC(=N)N)C(N)=O)NC1=O)C(=O)N[C@@H](Cc1c[nH]c3ccccc13)C(=O)N[C@@H](CCC(N)=O)C(=O)N2 (single isomer, unassigned) [I3 (isomer 3), H-DC(1a)SC(2a)WQC(2a)WWLC(1a)R-[NH2], reference compound] |  |  |  |  |  |  |  | 5 | 0 | 0 | 0 |
